# Data reported in patent publication US7666890B2, “Synthesis and herbicidal activity of 1- (2-substituted benzo[d]thiazol-5-yl)-1H-1,2,4-triazol-5(4H)-one derivatives” (Huazhong Normal University, priority 2007, dated 2010).
# Experiments:
# Assay in all cases: Test of herbicidal activities (greenhouse pot method)
# Type in all cases: in vivo
# Settings in all cases: single dose 300 g ai./h, treated before/after germination, 15 days later, greenhouse pot
# Digiatria sanguinalis = tested on: Digiatria sanguinalis
# In short: (§1)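 Weeds were sown in soil-filled pots at 15–30 °C and treated once by spray tower at 300 g ai./h, either before emergence or post-emergence at the 2-leaf stage, in three replicates with an untreated control. Symptoms were scored 15 days later into five classes from A (≥90%) to E (<50%).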
# Echinochloa crusgalli = tested on: Echinochloa crusgalli
# In short: as §1
# Chenopodium album = tested on: Chenopodium album
# In short: as §1
# Amaranthus retroflexus = tested on: Amaranthus retroflexus
# In short: as §1
# Setaria viridis = tested on: Setaria viridis
# In short: as §1
# Brassica juncea = tested on: Brassica juncea
# In short: as §1
SMILES,Herbicidal activity Digiatria sanguinalis (inhibition level) (Digiatria sanguinalis),Herbicidal activity Echinochloa crusgalli (inhibition level) (Echinochloa crusgalli),Herbicidal activity Chenopodium album (inhibition level) (Chenopodium album),Herbicidal activity Amaranthus retroflexus (inhibition level) (Amaranthus retroflexus),Herbicidal activity Setaria viridis (inhibition level) (Setaria viridis),Herbicidal activity Brassica juncea (inhibition level) (Brassica juncea),"inhibition at 300 g/ha (Digiatria sanguinalis; 360 h, read-out: Herbicidal activity Digiatria sanguinalis (inhibition level)) [%]","inhibition at 300 g/ha (Echinochloa crusgalli; Echinochloa crus-galli, 360 h, read-out: Herbicidal activity Echinochloa crusgalli (inhibition level)) [%]","inhibition at 300 g/ha (Chenopodium album; Chenopodium album, 360 h, read-out: Herbicidal activity Chenopodium album (inhibition level)) [%]","inhibition at 300 g/ha (Amaranthus retroflexus; Amaranthus retroflexus, 360 h, read-out: Herbicidal activity Amaranthus retroflexus (inhibition level)) [%]","inhibition at 300 g/ha (Setaria viridis; Setaria viridis, 360 h, read-out: Herbicidal activity Setaria viridis (inhibition level)) [%]","inhibition at 300 g/ha (Brassica juncea; Brassica juncea, 360 h, read-out: Herbicidal activity Brassica juncea (inhibition level)) [%]"
Cc1nn(-c2cc3nc(SCc4c(F)cccc4F)sc3cc2Cl)c(=O)n1C(F)F [Compound 9],B (80 ≦ B < 90%),B (80 ≦ B < 90%),C (60 ≦ C < 80%),B (80 ≦ B < 90%),E (E < 50%),A (90 ≦ A ≦ 100%),–,–,–,–,–,–
Cc1nn(-c2cc3nc(SCc4ccc(F)cc4)sc3cc2Br)c(=O)n1C(F)F [Compound 27],D (50 ≦ D < 60%),B (80 ≦ B < 90%),C (60 ≦ C < 80%),D (50 ≦ D < 60%),B (80 ≦ B < 90%),A (90 ≦ A ≦ 100%),–,–,–,–,–,–
Cc1nn(-c2cc3nc(S(=O)(=O)Cc4ccc(Br)cc4)sc3cc2Cl)c(=O)n1C(F)F [Compound 42],A (90 ≦ A ≦ 100%),E (E < 50%),D (50 ≦ D < 60%),A (90 ≦ A ≦ 100%),B (80 ≦ B < 90%),C (60 ≦ C < 80%),–,–,–,–,–,–
CCOC(=O)C(C)S(=O)(=O)c1nc2cc(-n3nc(C)n(C(F)F)c3=O)c(Cl)cc2s1 (stereo not drawn) [Compound 67],A (90 ≦ A ≦ 100%),C (60 ≦ C < 80%),B (80 ≦ B < 90%),C (60 ≦ C < 80%),B (80 ≦ B < 90%),B (80 ≦ B < 90%),–,–,–,–,–,–
CCOC(=O)CSc1nc2cc(-n3nc(C(F)(F)F)n(C(F)F)c3=O)c(Br)cc2s1 [Compound 127],B (80 ≦ B < 90%),C (60 ≦ C < 80%),B (80 ≦ B < 90%),B (80 ≦ B < 90%),D (50 ≦ D < 60%),B (80 ≦ B < 90%),–,–,–,–,–,–
CSc1nc2cc(-n3nc(C)n(C(F)F)c3=O)c(Cl)cc2s1 [Compound 96],B (80 ≦ B < 90%),B (80 ≦ B < 90%),B (80 ≦ B < 90%),B (80 ≦ B < 90%),C (60 ≦ C < 80%),B (80 ≦ B < 90%),–,–,–,–,–,–
CCCS(=O)(=O)c1nc2cc(-n3nc(C)n(C(F)F)c3=O)c(F)cc2s1 [Compound 64],A (90 ≦ A ≦ 100%),B (80 ≦ B < 90%),B (80 ≦ B < 90%),B (80 ≦ B < 90%),B (80 ≦ B < 90%),D (50 ≦ D < 60%),–,–,–,–,–,–
Cc1nn(-c2cc3nc([S+]([O-])Cc4cccc(Cl)c4)sc3cc2Cl)c(=O)n1C(F)F (stereo not drawn) [Compound 107],B (80 ≦ B < 90%),B (80 ≦ B < 90%),B (80 ≦ B < 90%),A (90 ≦ A ≦ 100%),D (50 ≦ D < 60%),A (90 ≦ A ≦ 100%),–,–,–,–,–,–
C=CCSc1nc2cc(-n3nc(C(F)(F)F)n(C(F)F)c3=O)c(F)cc2s1 [Compound 123],B (80 ≦ B < 90%),D (50 ≦ D < 60%),A (90 ≦ A ≦ 100%),A (90 ≦ A ≦ 100%),B (80 ≦ B < 90%),D (50 ≦ D < 60%),–,–,–,–,–,–
C=CC[S+]([O-])c1nc2cc(-n3nc(C)n(C(F)F)c3=O)c(Br)cc2s1 (stereo not drawn) [Compound 117],B (80 ≦ B < 90%),C (60 ≦ C < 80%),B (80 ≦ B < 90%),C (60 ≦ C < 80%),E (E < 50%),C (60 ≦ C < 80%),–,–,–,–,–,–
CCOC(=O)CS(=O)(=O)c1nc2cc(-n3nc(C)n(C(F)F)c3=O)c(Br)cc2s1 [Compound 54],C (60 ≦ C < 80%),B (80 ≦ B < 90%),C (60 ≦ C < 80%),B (80 ≦ B < 90%),D (50 ≦ D < 60%),A (90 ≦ A ≦ 100%),–,–,–,–,–,–
Cc1ccc([N+](=O)[O-])c(CSc2nc3cc(-n4nc(C)n(C(F)F)c4=O)c(F)cc3s2)c1 [Compound 16],C (60 ≦ C < 80%),C (60 ≦ C < 80%),C (60 ≦ C < 80%),C (60 ≦ C < 80%),B (80 ≦ B < 90%),B (80 ≦ B < 90%),–,–,–,–,–,–
CC[S+]([O-])c1nc2cc(-n3nc(C)n(C(F)F)c3=O)c(F)cc2s1 (stereo not drawn) [Compound 113],C (60 ≦ C < 80%),B (80 ≦ B < 90%),D (50 ≦ D < 60%),B (80 ≦ B < 90%),C (60 ≦ C < 80%),A (90 ≦ A ≦ 100%),–,–,–,–,–,–
CC[S+]([O-])c1nc2cc(-n3nc(C)n(C(F)F)c3=O)c(Cl)cc2s1 (stereo not drawn) [Compound 115],B (80 ≦ B < 90%),C (60 ≦ C < 80%),D (50 ≦ D < 60%),B (80 ≦ B < 90%),B (80 ≦ B < 90%),A (90 ≦ A ≦ 100%),–,–,–,–,–,–
COCCSc1nc2cc(-n3nc(C)n(C(F)F)c3=O)c(Cl)cc2s1 [Compound 76],A (90 ≦ A ≦ 100%),A (90 ≦ A ≦ 100%),C (60 ≦ C < 80%),A (90 ≦ A ≦ 100%),B (80 ≦ B < 90%),C (60 ≦ C < 80%),–,–,–,–,–,–
Cc1nn(-c2cc3nc(SCc4ccc(F)cc4)sc3cc2F)c(=O)n1C(F)F [Compound 20],C (60 ≦ C < 80%),C (60 ≦ C < 80%),B (80 ≦ B < 90%),A (90 ≦ A ≦ 100%),B (80 ≦ B < 90%),B (80 ≦ B < 90%),–,–,–,–,–,–
Cc1nn(-c2cc3nc([S+](C)[O-])sc3cc2Br)c(=O)n1C(F)F (stereo not drawn) [Compound 108],B (80 ≦ B < 90%),A (90 ≦ A ≦ 100%),E (E < 50%),B (80 ≦ B < 90%),B (80 ≦ B < 90%),A (90 ≦ A ≦ 100%),–,–,–,–,–,–
CCOC(=O)CSc1nc2cc(-n3nc(C)n(C(F)F)c3=O)c(Cl)cc2s1 [Compound 98],–,–,–,–,–,–,90 to 100,90 to 100,80 to 90,90 to 100,90 to 100,90 to 100
Cc1nn(-c2cc3nc(SCc4cccc(Cl)c4)sc3cc2Cl)c(=O)n1C(F)F [Compound 4],E (E < 50%),C (60 ≦ C < 80%),C (60 ≦ C < 80%),B (80 ≦ B < 90%),C (60 ≦ C < 80%),E (E < 50%),–,–,–,–,–,–
Cc1ccc([N+](=O)[O-])c(C[S+]([O-])c2nc3cc(-n4nc(C)n(C(F)F)c4=O)c(F)cc3s2)c1 (stereo not drawn) [Compound 106],D (50 ≦ D < 60%),D (50 ≦ D < 60%),A (90 ≦ A ≦ 100%),D (50 ≦ D < 60%),B (80 ≦ B < 90%),B (80 ≦ B < 90%),–,–,–,–,–,–
